Test results as given in patent publication US20250136556A1, “NOVEL MODULATORS OF THE ARYL HYDROCARBON RECEPTOR AND METHODS OF USE THEREOF” (Allianthera (Suzhou) Biopharmaceutical Co., Ltd., priority 2021, published 2025).
Where two headings read alike, the source gives them in different places.

Key:
Assay type in all cases: cell-based
[1] = molecular target: T1, Human Aryl Hydrocarbon Receptor (AHR) (Homo sapiens, UniProt P35869); experiment: AHR agonist reporter assay in human cell line (INDIGO luciferase reporter); conditions: reporter cells; for EC50: 24 hours incubation;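 on all read-outs here: firefly luciferase luminescence read on a plate reader, values normalized against positive and negative controls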
T1 construct: purchased INDIGO Bioscience IB06001-32; host or cells: AHR Reporter Cell (proprietary kit cells)
T1 sequence (P35869 11-848): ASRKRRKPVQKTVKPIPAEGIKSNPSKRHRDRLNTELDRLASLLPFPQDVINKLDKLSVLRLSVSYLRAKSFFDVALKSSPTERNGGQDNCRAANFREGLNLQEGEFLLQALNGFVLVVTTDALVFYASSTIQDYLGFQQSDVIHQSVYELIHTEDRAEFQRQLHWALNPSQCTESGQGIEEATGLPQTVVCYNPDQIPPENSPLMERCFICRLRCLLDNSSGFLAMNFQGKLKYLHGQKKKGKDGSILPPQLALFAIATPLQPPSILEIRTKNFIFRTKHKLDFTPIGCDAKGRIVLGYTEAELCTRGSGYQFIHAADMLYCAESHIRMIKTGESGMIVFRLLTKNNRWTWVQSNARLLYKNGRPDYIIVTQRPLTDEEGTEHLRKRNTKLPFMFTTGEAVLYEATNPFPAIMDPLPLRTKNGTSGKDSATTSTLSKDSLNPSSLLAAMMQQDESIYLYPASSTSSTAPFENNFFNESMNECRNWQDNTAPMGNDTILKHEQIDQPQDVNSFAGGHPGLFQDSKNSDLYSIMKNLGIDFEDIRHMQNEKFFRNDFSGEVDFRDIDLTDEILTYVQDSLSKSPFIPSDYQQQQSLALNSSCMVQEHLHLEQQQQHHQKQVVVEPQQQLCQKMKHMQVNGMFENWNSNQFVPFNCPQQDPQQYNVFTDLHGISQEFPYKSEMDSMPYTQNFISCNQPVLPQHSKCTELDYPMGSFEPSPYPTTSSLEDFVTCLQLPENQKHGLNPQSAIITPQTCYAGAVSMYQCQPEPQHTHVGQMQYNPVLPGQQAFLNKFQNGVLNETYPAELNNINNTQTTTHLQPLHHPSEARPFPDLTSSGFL
Description: The AHR reporter assay was performed following the protocol of the Human Aryl Hydrocarbon Receptor (AHR) Reporter Assay System (INDIGO Bioscience, #IB06001-32). AHR Reporter Cell was thawed and pre-incubated in Cell Recovery Medium (CRM) for 6 hours. […] Following 24 hours incubation, the media was removed and Luciferase Detection Reagent (LDR) added. The firefly luciferase activity was quantified using a plate reader. Results were normalized by positive and negative controls.

[2] = system: Human Nuclear Factor (erythroid-derived2)-like 2 (Nrf2); experiment: Nrf2 transcription factor activity reporter assay in human cell line (INDIGO luciferase reporter); conditions: reporter cells, 24 hours incubation, second line of cell; read-out: Nrf2 EC50, second line of cell (head does not name it)
Description: The Nrf2 reporter assay was performed following the protocol of the Human Nuclear Factor (erythroid-derived2)-like 2 (Nrf2) Reporter Assay System (INDIGO Bioscience, #IB10001). Nrf2 Reporter Cell was thawed and pre-incubated in Cell Recovery Medium (CRM) for 6 hours. The media was then removed and the cells were incubated with Compound Screening Medium (CSM) in the absence (negative control) or presence of increasing concentrations of test compounds (typical dilution: 128 pM, 640 pM, 3.2 nM, 16 nM, 80 nM, 400 nM, […] in duplicates) for 24 hours. For positive control, cells activated with CDDO or Nrf2 agonists described in literature. Following 24 hours incubation, the media was removed and Luciferase Detection Reagent (LDR) added. The firefly luciferase activity was quantified using a plate reader. Results were normalized by positive and negative controls.

[3] = system: IL-6 gene expression in human primary M1 macrophage cells; experiment: AHR-regulated IL-6 inhibition in human primary M1 macrophage (qPCR); conditions: LPS/IFN-gamma/GM-CSF, 24 hours; for IC50: read-out: M1 assay IL6 -IC50
Description: Human M1 macrophage was differentiated from PBMC. Briefly, at day 1, monocytes were isolated from human PBMC using EasySe Human Monocyte Enrichment Kit without CD16 Depletion (Stemcell, 19058). The isolated monocytes were seeded at 3×10^7 cells in 15 cm dish using 30 ml medium containing 50 ng/ml GM-CSF (R&D, 215-GM-050/CF). At day 5, 30 ml fresh medium containing 50 ng/ml GM-CSF was added. At day 8, 1.5×10^5 cells/well were re-seeded into 24 wells plate, and 500 ul medium containing 10 ng/ml LPS (Sigma, L7770), 20 ng/ml IFN-gamma (PeproTech, 300-02), 50 ng/ml GM-CSF and the test compounds was added. […] The IL-6 expression was inhibited with AHR agonists described in literature as the positive inhibition control, alternatively the un-stimulated cells were used as the negative inhibition control. […] The primers for human GAPDH (F: […]; R: […]) and human IL-6 (F: […]; R: […]) were used to analyze fold expression of IL-6 of GAPDH by quantitative PCR.

[4] = second line of cell, read-out: AHR abEC50

| SMILES | EC50 [1, 4] [nM] | also measured |
| --- | --- | --- |
| CCCc1c(O)cc(-c2cnc3c(F)c(F)ccc3c2)cc1F [Compound 155] |  | M1 assay IL6 -max % inhibition (% to no treatment) [3]: 89.10%; IC50 [3]: 3.5 nM |
| CC(C)c1c(O)cc(-c2ccc3cnccc3c2F)cc1F [Compound 139] |  | M1 assay IL6 -max % inhibition (% to no treatment) [3]: 85.80%; IC50 [3]: 5 nM |
| Cc1ccnc2cc(-c3cc(O)c(C(C)C)c(F)c3)ccc12 [Compound 147] |  | M1 assay IL6 -max % inhibition (% to no treatment) [3]: 91.60%; IC50 [3]: 0.03 nM |
| CC(C)c1c(O)cc(-c2ccc3ncccc3c2F)cc1F [Compound 140] |  | M1 assay IL6 -max % inhibition (% to no treatment) [3]: 92.30%; IC50 [3]: 0.13 nM |
| CC(C)c1c(O)cc(-c2ccnc3c(F)cccc23)cc1O [Compound 3] | > 100 |  |
| CC(C)c1c(O)cc(-c2cc(C(F)(F)F)c3cc(F)ccc3n2)cc1O [Compound 1] | 25.2 |  |
| CC(C)c1c(O)cc(-c2cnc3c(F)c(F)ccc3c2)cc1O [Compound 45] | 38.9 |  |
| CC(C)c1c(O)cc(-c2cccc3ncccc23)cc1O [Compound 20] | > 100 |  |
| CC(C)c1c(O)cc(-c2ccc3ncnc(N)c3c2)cc1O [Compound 42] | > 100 |  |
| CC(C)c1c(O)cc(-c2ccc3nccc(C#N)c3c2)cc1O [Compound 30] | > 100 |  |
| CCCc1c(O)cc(-c2ccc3c(C)ccnc3c2)cc1F [Compound 161] |  | M1 assay IL6 -max % inhibition (% to no treatment) [3]: 91.30%; IC50 [3]: 1.19 nM |
| CC(C)c1c(O)cc(-c2c(Cl)cc3c(O)ncnc3c2F)cc1O [Compound 38] | > 100 |  |
| CC(C)c1c(O)cc(-c2ccc3cc(F)ccc3n2)cc1O [Compound 9] | 20.9 |  |
| CC(C)c1c(O)cc(-c2ccc(F)c3ccc(C(F)(F)F)nc23)cc1O [Compound 13] | > 100 |  |
| CC(C)c1c(O)cc(-c2ccnc3c(Cl)cccc23)cc1O [Compound 17] | > 100 |  |
| CC(C)c1c(O)cc(-c2cc3cnccc3cc2F)cc1O [Compound 34] | > 100 |  |

| SMILES | EC50 [1, 4] [nM] | also measured |
| --- | --- | --- |
| CC(C)c1c(O)cc(-c2cc3cccnc3cc2F)cc1O [Compound 7] | > 100 |  |
| CC(C)c1c(O)cc(-c2nccc3cccnc23)cc1O [Compound 44] | > 100 |  |
| CC(C)c1c(O)cc(-c2ccc3ccccc3n2)cc1O [Compound 47] | 4.21 | EC50 [2]: 530 nM |
| CC(C)c1c(O)cc(-c2ccc3nccnc3c2)cc1O [Compound 40] | > 100 |  |
| CC(C)c1c(O)cc(-c2cc(F)c3nccnc3c2)cc1O [Compound 36] | > 100 |  |
| CC(C)c1c(O)cc(-c2nc3ccccc3[nH]2)cc1O [Compound 50] | 17.4 | EC50 [2]: 20 nM |
| CC(C)c1ncc(-c2cc3cccnc3cc2F)cc1O [Compound 58] | > 100 |  |
| CC(C)c1c(O)cc(-c2cccc3ccc(C(=O)O)nc23)cc1O [Compound 25] | > 100 |  |
| CNc1ccnc2ccc(-c3cc(O)c(C(C)C)c(O)c3)cc12 [Compound 16] | > 100 |  |
| CC(C)c1c(O)cc(-c2cc(F)c3ncccc3c2F)cc1O [Compound 12] | > 100 |  |
| CC(C)c1c(O)cc(-c2cc(N)c3ccccc3n2)cc1O [Compound 24] | > 100 |  |
| CC(C)c1c(O)cc(-c2cnc3cccc(O)c3c2)cc1O [Compound 23] | > 100 |  |
| CC(C)c1c(O)cc(-c2ccc3nccc(F)c3c2)cc1O [Compound 8] | > 100 |  |
| Cc1cnc2ccc(-c3cc(O)c(C(C)C)c(O)c3)cc2c1 [Compound 26] | > 100 |  |
| COc1ccc2ccc(-c3cc(O)c(C(C)C)c(O)c3)cc2n1 [Compound 27] | > 100 |  |
| CC(C)c1c(O)cc(-c2cncc3ccc(F)cc23)cc1O [Compound 32] | > 100 |  |

Continued, in another order:

| EC50 [1, 4] [nM] | SMILES | also measured |
| --- | --- | --- |
| 343 | CC(C)Oc1cc(/C=C/c2ccccc2)cc(O)n1 [Compound 106, (E)-6-isopropoxy-4-styrylpyridin-2-ol] | EC50 [2]: > 400 nM |
| > 100 | COc1cc(/C=C/c2ccccc2)cc(OC)c1C(C)=O [Compound 107, 1-{2,6-dimethoxy-4-[(E)-2-phenylethenyl]phenyl} ethenone] | EC50 [2]: > 100 nM |
| > 100 | CC(C)c1ncc(-c2cnc3ccccc3c2)cc1O [Compound 99] | EC50 [2]: 100 nM |
| 94.4 | CC(C)c1ncc(-c2nc3ccccc3[nH]2)cc1O [Compound 101] |  |
| 233 | COc1cc(Oc2ccccc2)cc(O)c1C(C)C [Compound 133, 2-isopropyl-3-methoxy-5-phenoxyphenol] | EC50 [2]: > 400 nM |
| 120 | CC(C)c1ncc(/C=C/c2ccc(F)cc2)cc1O [Compound 114, 5-[(E)-2-(4-fluorophenyl)ethenyl]-2-isopropylpyridin-3-ol] | EC50 ([1]; first line of cell, read-out: AHR reEC50): 143 nM; AHR % activation to Tapinarof at 1 μM ([1]; 24 hours, value in brackets): 88.5%; EC50 [2]: 19 nM |
| > 100 | CC(C)c1ncc(-c2cccc3ncccc23)cc1O [Compound 71] |  |
| > 100 | Cc1cnc2ccc(-c3cnc(C(C)C)c(O)c3)cc2c1 [Compound 77] |  |
| > 100 | CC(C)c1ncc(-c2ccnc3c(Cl)cccc23)cc1O [Compound 68] |  |
| 39 | COc1cc(/C=C/c2ccccc2)cc(O)c1C(C)(C)O [Compound 111] | EC50 [2]: 57 nM |
| > 100 | CC(C)c1nc2c(cc1O)CC(c1ccccc1)O2 (stereo not drawn) [Compound 127, 6-isopropyl-2-phenyl-2H,3H-furo[2,3-b]pyridin-5-ol] |  |
| > 100 | Cc1ccnc2c(-c3cnc(C(C)C)c(O)c3)ccnc12 [Compound 94] |  |
| > 100 | CC(C)c1ncc(-c2cc3ccccc3nc2C#N)cc1O [Compound 79] |  |
| > 400 | CC(C)c1c(O)cc(Sc2ccccc2)cc1O [Compound 129, 2-isopropyl-5-(phenylthio) benzene-1,3-diol] |  |
| > 100 | C=C(C)c1c(OC)cc(/C=C/c2ccccc2)cc1OC [Compound 110, 1,3-dimethoxy-5-[(E)-2-phenylethenyl]-2-(prop-1-en-2-yl)benzene] | EC50 [2]: > 100 nM |
| 17.1 | FC(F)(F)c1ccc(Nc2nccc(-c3cccc(Cl)c3)n2)cc1 [Reference, reference compound] |  |
| > 100 | CC(C)c1ncc(-c2ccc3nccc(F)c3c2)cc1O [Compound 59] |  |
| > 100 | CC(C)c1ncc(-c2ccc3cc(F)ccc3n2)cc1O [Compound 60] |  |
| > 100 | CC(C)c1ncc(-c2nc3ccccc3o2)cc1N [Compound 121, 5-(1,3-benzoxazol-2-yl)-2-isopropylpyridin-3-amine] | EC50 [2]: 120 nM |
| > 100 | CC(C)c1ncc(-c2cc3cnccc3cc2F)cc1O [Compound 85] |  |
| > 400 | CC(C)n1c(O)cc(/C=C/c2ccccc2)cc1=O [Compound 105, (E)-6-hydroxy-1-isopropyl-4-styrylpyridin-2(1H)-one] |  |
| > 100 | CC(C)c1ncc(-c2ccc3ncccc3c2F)cc1O [Compound 61] |  |
| > 100 | CC(C)c1ncc(-c2cccc3ccc(C(=O)O)nc23)cc1O [Compound 76] |  |
| > 100 | COc1cc(-c2cnc(C(C)C)c(O)c2)cc2cccnc12 [Compound 69] |  |
| > 100 | CC(C)c1ncc(-c2cncc3ccc(F)cc23)cc1O [Compound 83] |  |
| > 100 | CC(C)c1ncc(-c2ncnc3ccccc23)cc1O [Compound 92] |  |
